Results: PubChem BioAssay (NCI)
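All cell lines were grown in 96-well plates and treated with compound for 48 hours. At the TGI there is no net growth.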

Assays:
Assay in all cases: NCI anticancer screen, dose series, 48 h
A498 renal = test system: A498 renal
COLO 205 colon = test system: COLO 205 colon
OVCAR-3 ovarian = test system: OVCAR-3 ovarian
PC-3 prostate = test system: PC-3 prostate
SK-MEL-2 melanoma = test system: SK-MEL-2 melanoma
SK-MEL-28 melanoma = test system: SK-MEL-28 melanoma
T-47D breast = test system: T-47D breast
BT-549 breast = test system: BT-549 breast
EKVX NSCLC = test system: EKVX NSCLC
SF-268 CNS = test system: SF-268 CNS

SMILES | TGI (A498 renal) | TGI (COLO 205 colon) | TGI (OVCAR-3 ovarian) | TGI (PC-3 prostate) | TGI (SK-MEL-2 melanoma) | TGI (SK-MEL-28 melanoma) | TGI (T-47D breast) | TGI (BT-549 breast) | TGI (EKVX NSCLC) | TGI (SF-268 CNS)
CCOC(=O)c1csc(NC(=O)CCN2CCN(C)CC2)n1 | > 100 µM | > 100 µM | > 100 µM | > 100 µM | > 100 µM | > 100 µM | > 100 µM | – | – | –
Cc1ccc(C)c(COCCOCn2cc(N3CCOCC3)c(=O)[nH]c2=O)c1 | > 100 µM | > 100 µM | – | > 100 µM | > 100 µM | > 100 µM | > 100 µM | > 100 µM | > 100 µM | > 100 µM
CC/C=N\N1C(N)=C(C#N)C(C#N)(C#N)C1CC (stereo not drawn) | > 100 µM | > 100 µM | > 100 µM | > 100 µM | > 100 µM | > 100 µM | > 100 µM | > 100 µM | > 100 µM | > 100 µM
O=C(C(=C(I)I)c1ccccc1)c1ccccc1 | 28.6 µM | > 100 µM | 42.3 µM | > 100 µM | 38 µM | 94.7 µM | – | > 100 µM | > 100 µM | > 100 µM
O=C1c2cc3c(cc2CC12Cc1ccc4c(c1C2=O)CCC4)CCC3 (stereo not drawn) | > 100 µM | – | > 100 µM | > 100 µM | > 100 µM | > 100 µM | > 100 µM | – | > 100 µM | > 100 µM
CCOC(=O)/C=C/CCC(C)(C)COC(C)=O | – | > 10 µM | > 10 µM | > 10 µM | > 10 µM | > 10 µM | > 10 µM | – | > 10 µM | > 10 µM
CCOC(=O)c1csc(NC(=O)CCN2CCCC2)n1 | – | > 100 µM | > 100 µM | > 100 µM | > 100 µM | > 100 µM | > 100 µM | – | > 100 µM | –
NC(=O)c1ccc[n+](C2=C([O-])c3ccccc3C(=O)/C2=N\S(=O)(=O)c2ccccc2)c1 | – | 30.2 µM | 17 µM | 30.2 µM | 25.7 µM | 30.2 µM | 53.6 µM | 28.8 µM | 27.8 µM | 31.3 µM
CC[C@H](NC(=O)OC(C)(C)C)C(=O)NCP(=O)(OCc1ccc([N+](=O)[O-])cc1)OCc1ccc([N+](=O)[O-])cc1 | – | 30 µM | > 100 µM | > 100 µM | > 100 µM | 92.9 µM | > 100 µM | > 100 µM | – | > 100 µM
CSc1nc(=O)c2nc(-c3cccs3)c(-c3cccs3)nc2n1C | > 100 µM | > 100 µM | – | > 100 µM | > 100 µM | > 100 µM | 80.4 µM | > 100 µM | > 100 µM | > 100 µM
CC1=NN2C(=N)/C(=C/c3ccc(F)cc3)C(=O)N=C2S1 | > 100 µM | > 100 µM | > 100 µM | > 100 µM | > 100 µM | > 100 µM | > 100 µM | > 100 µM | > 100 µM | > 100 µM
CCOC(=O)N1CCN(c2c(N)nc(C)[nH]c2=O)CC1 | > 100 µM | > 100 µM | > 100 µM | > 100 µM | > 100 µM | > 100 µM | > 100 µM | > 100 µM | > 100 µM | > 100 µM
CC[C@]12C=CCN3CCC4(c5cc([C@@]6(C(=O)OC)CC7CN(CCc8c6[nH]c6ccccc86)CC6CCCCC67)c(OC)cc5N(C)C4[C@](O)(C(=O)OC)C1OC(C)=O)[C@@H]32 (stereo partly drawn) | 0.576 µM | < 0.01 µM | – | 0.393 µM | 0.145 µM | – | – | – | 21.7 µM | 1.47 µM
CNC(=S)N1CCN(C(C)=O)C1=S | > 100 µM | > 100 µM | > 100 µM | – | 5.36 µM | > 100 µM | 90.7 µM | 51.7 µM | 91.9 µM | > 100 µM
C=C(C)[C@H]1CC23C(=O)[C@@](C)(C[C@H]2C1(C)C)C(=O)C(C(=O)C(C)C)=C3O | – | 23.1 µM | 37.7 µM | 33 µM | 33.6 µM | 28.6 µM | > 100 µM | 37.7 µM | 28.8 µM | 50.4 µM
CCC1([N+](=O)[O-])CN(N=O)C1 | > 100 µM | > 100 µM | > 100 µM | > 100 µM | > 100 µM | > 100 µM | > 100 µM | > 100 µM | > 100 µM | > 100 µM
Cc1cc(S(=O)(=O)N=C2Nc3cccc4cccc(c34)N2)c(S)cc1Cl | – | > 100 µM | > 100 µM | > 100 µM | > 100 µM | > 100 µM | > 100 µM | > 100 µM | > 100 µM | > 100 µM
O=C(Nc1nn(C(=O)c2cccnc2)c(=O)s1)c1ccc(Cl)cc1 | > 100 µM | > 100 µM | > 100 µM | > 100 µM | > 100 µM | > 100 µM | > 100 µM | > 100 µM | > 100 µM | 40.4 µM
N#CCCN(CCC#N)c1ccc(C(N=Nc2ccccc2)=Nc2ccc(F)cc2)cc1 | > 100 µM | > 100 µM | > 100 µM | > 100 µM | > 100 µM | > 100 µM | > 100 µM | > 100 µM | > 100 µM | > 100 µM
CC(C)=C/C(CC(O)(C(F)(F)F)C(F)(F)F)=N\O | > 100 µM | > 100 µM | – | – | – | > 100 µM | > 100 µM | – | > 100 µM | > 100 µM
O=C(c1ccco1)N(C(=O)N1CCC(c2ccccc2)CC1)c1ccccc1 | > 100 µM | > 100 µM | > 100 µM | > 100 µM | > 100 µM | > 100 µM | 64.2 µM | > 100 µM | > 100 µM | > 100 µM
COc1cc2c(cc1OCc1ccccc1)NC(=O)[C@@H]1CCCN1C2=O | > 100 µM | > 100 µM | > 100 µM | > 100 µM | > 100 µM | > 100 µM | > 100 µM | > 100 µM | > 100 µM | > 100 µM
CC1=C(C)SC(=C2Sc3c(n(C)c(=O)n(C)c3=O)S2)S1 | 79.4 µM | > 100 µM | > 100 µM | > 100 µM | 79.1 µM | > 100 µM | > 100 µM | > 100 µM | > 100 µM | > 100 µM
